Data: US20250213584A1, “ERCC1-XPF COMPLEX INHIBITOR COMPOUNDS AND THE USE THEREOF IN THE TREATMENT OF CANCER” (FUNDAÇÃO D. ANNA DE SOMMER CHAMPALIMAUD E DR. CARLOS MONTEZ …, priority 2023, published 2025)
pIC50: −log10 of the molar value.

What was measured:
H1299 cells [1] = experiment: Crystal violet (CV) staining assay, cisplatin cytotoxicity; assay type: cell-based, human; settings: 72-h incubation
Experimental: To evaluate the cisplatin cytotoxicity effect in the selected H1299 cell line (highest ERCC1 expression), a concentration-response profile was established resorting to two mechanistically different cell viability assays, the CV staining and the MTS reduction assays (FIG. 9). The IC50 values for cisplatin were also calculated for a 72-h incubation period based on its dose-response profile. The cytotoxicity of cisplatin in H1299 cells was evaluated according to a previously described crystal violet (CV) staining protocol. This assay allows the colorimetric determination of adherent cells by staining their nucleus. First, cells were inoculated at a density of approximately 3×10^3 cells/well in 200 μL of complete culture medium in 96-well plates. After adherence (24 h), culture medium was renewed, and the cells were incubated with a range of 1-30 μM of cisplatin for another 72 h. After incubation, cells were washed with warm PBS to remove non-adherent cells (non-viable cells). The adherent cells were then fixated with ice-cold 96% ethanol for 10 min and stained with 0.1% crystal violet in 10% ethanol for 5 min. […] Absorbance was measured at 595 nm (OD595) using a SPECTROstar OMEGA microplate reader. […] The IC50 values were calculated based on the obtained concentration-response curves using GraphPad Prism® 9.0 (GraphPad Software, Inc., La Jolla, CA, USA).

H1299 cells [2] = experiment: MTS reduction assay, cisplatin cytotoxicity; assay type: cell-based, human
Experimental: To evaluate the cisplatin cytotoxicity effect in the selected H1299 cell line (highest ERCC1 expression), a concentration-response profile was established resorting to two mechanistically different cell viability assays, the CV staining and the MTS reduction assays (FIG. 9). The IC50 values for cisplatin were also calculated for a 72-h incubation period based on its dose-response profile. The 3-(4,5-dimethylthiazol-2-yl)-5-(3-carboxymethoxyphenyl)-2-(4-sulfophenyl)-2H-tetrazolium salt (MTS) reduction assay was carried out as a confirmatory assay of cell viability. This methodology is commonly used in in vitro toxicology and is based on the enzymatic reduction of a tetrazolium salt in viable cells by mitochondrial enzymes (NAD-dependent dehydrogenase) with the formation of a colored formazan product. […] H1299 cells were incubated for 2 h30 with the MTS reagent and the absorbance was measured at 490 nm and 690 nm (reference wavelength) using a SPECTROstar OMEGA microplate reader. Absorbance values presented by vehicle-treated control cells corresponded to 100% of cell viability. […] The IC50 was also calculated based on the concentration-response curve using GraphPad Prism® 9.0.

ERCC1-XPF = molecular target: T1, ERCC1-XPF (Homo sapiens, UniProt Q92889); settings: literature; cited from earlier work
T1 sequence (Q92889 1-916): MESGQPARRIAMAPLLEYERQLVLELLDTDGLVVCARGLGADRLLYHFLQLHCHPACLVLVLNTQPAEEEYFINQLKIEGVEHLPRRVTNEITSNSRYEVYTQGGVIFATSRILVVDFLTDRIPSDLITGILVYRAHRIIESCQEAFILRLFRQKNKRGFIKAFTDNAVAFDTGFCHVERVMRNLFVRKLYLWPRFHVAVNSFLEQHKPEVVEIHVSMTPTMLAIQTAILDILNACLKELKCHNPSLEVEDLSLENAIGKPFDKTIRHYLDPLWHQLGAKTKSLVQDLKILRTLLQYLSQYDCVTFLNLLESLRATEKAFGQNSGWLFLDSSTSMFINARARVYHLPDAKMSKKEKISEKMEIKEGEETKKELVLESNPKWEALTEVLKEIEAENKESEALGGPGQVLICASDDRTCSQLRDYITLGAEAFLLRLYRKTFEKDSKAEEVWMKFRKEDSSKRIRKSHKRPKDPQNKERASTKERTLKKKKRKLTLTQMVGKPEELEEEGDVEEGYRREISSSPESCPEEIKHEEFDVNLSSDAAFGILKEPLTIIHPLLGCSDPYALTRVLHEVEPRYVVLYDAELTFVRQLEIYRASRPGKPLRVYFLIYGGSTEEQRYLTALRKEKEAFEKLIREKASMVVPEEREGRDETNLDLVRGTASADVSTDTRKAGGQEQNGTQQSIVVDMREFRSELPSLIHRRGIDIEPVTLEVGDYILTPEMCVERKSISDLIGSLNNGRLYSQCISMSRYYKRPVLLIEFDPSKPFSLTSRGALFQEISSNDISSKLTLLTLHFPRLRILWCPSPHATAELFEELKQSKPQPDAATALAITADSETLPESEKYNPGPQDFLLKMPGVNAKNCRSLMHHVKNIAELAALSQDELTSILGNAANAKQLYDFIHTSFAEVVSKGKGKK

With `N.N.[Cl][Pt][Cl]` [cisplatin] the pIC50 (H1299 cells [1]) was 5.52, the pIC50 (H1299 cells [2]; 72-h incubation) was 5.43 and the cell death (H1299 cells [2]; cisplatin alone at 1 μM, 72 h) was 10-15%.
In the case of `COc1ccc2nc3cc(Cl)ccc3c(Nc3ccc(O)c(CN4CCN(C)CC4)c3)c2c1` [F06], the “disruption of ERCC1-XPF interaction” value (ERCC1-XPF) is given as “ability to disrupt the interaction between ERCC1 and XPF”.
